Source: patent US7264314B2, “Adrenocorticotropic hormone analogs and related methods” (priority 2004, dated 2007)
No end group written: not given here.

Assays:
[1] = system: corticosterone production by explanted mouse adrenal halves; test: in vitro Serum-free Adrenal Inhibition Assay; assay type: cell-based
Procedure: A series of separate in vitro Serum-Free Adrenal Corticosteroid Inhibition Assay were performed to identify ACTH analogs that inhibit ACTH-induced adrenal hormone production in vitro. The concentration of corticosterone was measured according to the procedure of Example 4 in a serum-free culture medium containing explanted adrenal membrane and unmodified ACTH, AT814 ACTH analog (SEQ ID NO:20), or a combination of ACTH and AT814 at 100 ng/mL each. […] Corticosterone levels were taken at 2.0 hours after the adrenal membrane was placed in the serum free M199 medium, and each corticosterone level in Table 5 is an average of five samples.
The in vitro Serum-free Adrenal Inhibition Assay was performed according the following method. First, adrenals were removed from mice, dissected free of fat, and cut in half. See Costa, J L, et al., “Mutational analysis of evolutionarily conserved ACTH residues,” Gen Comp Endocrinol. 136:12–16 (2004); and Weber, M M, et al., “Postnatal overexpression of insulin-like growth factor II in transgenic mice is associated with adrenocortical hyperplasia and enhanced steroidogenesis,” Endocrinology 140:1537–1543 (1999), incorporated herein by reference.
Second, each adrenal half was placed into an individual well of a 4-well dish, one dish per mouse. Adrenal halves were incubated at 5% CO2, 37° C., in 0.5 ml serum-free medium (M199; Invitrogen) for 30 minutes to equilibrate.
Third, medium was removed and replaced by 0.5 ml M199 containing ACTH, AT814, or both, at 100 ng/ml each; controls had no peptides added.
Fourth, after 2 hours of incubation, the medium was removed, pooled for all four halves from each mouse, and assayed by corticosterone using standard RIA methods. corticosterone was determined by competitive radioimmunoassay (^125I RIA kit; ICN, Costa Mesa, Calif.) according to the manufacturer's recommendations. One microliter of serum was used per assay sample. Samples were run in duplicates.

[2] = system: ACTH-induced serum corticosterone in dexamethasone-suppressed mice; test: in vivo Serum Corticosteroid Inhibition Assay; design: species or system FVB/N mice; conditions: for reduction in serum corticosterone levels: ACTH alone = 100%; for serum corticosterone level at 180 minutes: blood one hour later; for corticosterone induction as percent of that of wildtype ACTH: 1 hour after last injection
Text: An in vivo Serum Corticosteroid Inhibition Assay measures the level of corticosteroid or corticosterone in the blood stream of a subject after administering a compound having a first corticosteroid-producing biological activity and a test compound. The compound having the corticosteroid-producing biological activity can be any compound known to induce a detectable increase in corticosteroid production. The test compound can be administered before the corticosteroid-producing compound, in combination with the corticosteroid-producing compound, and/or after the corticosteroid-producing compound. The corticosteroid-producing compound is preferably ACTH, but can also be an ACTH analog with a known corticosteroid-producing biological activity. By performing a series of in vivo Serum Corticosteroid Inhibition Assays using ACTH analog test compounds, ACTH analogs that inhibit the production of corticosteroid relative to the corticosteroid-producing compound used can be identified. Preferably, the ACTH analogs identified in this manner inhibit the production of corticosteroid in the presence of endogenous unmodified ACTH.
The in vivo Serum Corticosteroid Inhibition Assay can include sequential administration of the test compound and the corticosteroid-producing compound by the following steps: first, an agent to suppress endogenous ACTH production was administered to a mouse subject, such as an intraperitoneal injection of dexamethasone; second, after waiting a suitable period of time for suppression of endogenous ACTH production (e.g., 1.5–2.0 hours), a test compound was administered to the mouse by a suitable method, such as intraperitoneal injection; third, after waiting a suitable period of time (e.g., 1 hour) for action of the test compound, a compound with corticosteroid-producing activity can be administered to the mouse by a suitable method, such as intraperitoneal injection; and fourth, after waiting a suitable period of time for the biological activity of both administered compounds to occur (e.g., 1 hour), a blood sample was taken from the subject and the level of serum corticosterone was determined by a suitable method, such as a competitive radioimmunoassay using ^125I RIA kit (ICN, Costa Mesa, Calif.). Optionally, steps two and three can be reversed (administering the corticosteroid-producing compound first, followed by administration of the test compound). The in vivo Serum Corticosteroid Inhibition Assay can also include co-administration of the test compound and the corticosteroid-producing compound by the following steps: first, an agent to suppress endogenous ACTH production was administered to a mouse subject, such as an intraperitoneal injection of dexamethasone; second, after waiting a suitable period of time for suppression of endogenous ACTH production (e.g., 1.5–2.0 hours), the corticosteroid-producing compound and a test compound were co-administered to the mouse by a suitable method, such as intraperitoneal injection; and third, after waiting a suitable period of time for the biological activity of both administered compounds to occur (e.g., 1 hour), a blood sample was taken from the subject and the level of serum corticosterone was determined by a suitable method, such as a competitive radioimmunoassay using ^125I RIA kit (ICN, Costa Mesa, Calif.). Also, in some embodiments, the first step in any in vivo Serum Corticosteroid Inhibition Assay can be replaced by a measurement of the initial endogenous corticosteroid or corticosteroid level in the blood of the subject in the manner of step four, instead of administering the agent to suppress ACTH production. Example 2 describes murine in vivo Serum Corticosteroid Inhibition Assays in detail.
A series of separate in vivo Serum Corticosteroid Inhibition Assays were performed to identify ACTH analogs that inhibit ACTH adrenal hormone production in vivo. […]

N-Ser^1-Tyr-Ser-Met-Glu^5-His-Phe-Arg-Trp-Gly^10-Lys-Pro-Val-Gly-Lys^15-Arg-Ala-Ala-Trp-Val^20-Lys-Val-Tyr-Pro-Ac (SYSMEHFRWGKPVGKRAAWVKVYP; not fully specified (C-terminus); printed as N-Ser1-Tyr-Ser-Met-Glu5-His-Phe-Arg-Trp-Gly10-Lys-Pro-Val-Gly-Lys15-Arg-Ala-Ala-Trp-Val20-Lys-Val-Tyr-Pro-Ac) [AT814]
corticosterone induction relative to ACTH (FIG. 4) ([1]; AT814 alone): negligible amount of corticosterone induction | reduction of corticosterone induction compared to unmodified ACTH alone ([1]; equal amounts of AT814 and unmodified ACTH): about 65% | corticosterone level in M199 serum-free medium ([1]; peptide alone, 100 ng/mL, 2 hours after addition, average of five samples, listed as (KKRRP15-19KRAAW) mACTH(1–24)): about 290 mg/mL | reduction in serum corticosterone levels ([2]; ACTH analog 30 minutes before ACTH): ~65% | serum corticosterone level at 180 minutes ([2]; ACTH analog at 90 minutes, mACTH(1–24) at 120 minutes after dexamethasone, listed as (KKRRP15-19KRAAW) mACTH(1–24)): 175 ± 27 ng/mL | serum corticosterone level at 180 minutes ([2]; ACTH analog at 90 minutes, mACTH(1–24) at 120 minutes after dexamethasone, listed as (KKRRP15-19KRMW) mACTH(1–24)): 175 ± 27 ng/mL | reduction in serum corticosterone levels ([2]; ACTH analog concurrently with ACTH): ~90% | serum corticosterone level at 180 minutes ([2]; ACTH analog together with mACTH(1–24) at 120 minutes after dexamethasone): 51 ± 8 ng/mL | serum corticosterone level at 180 minutes ([2]; ACTH analog together with mACTH(1–24) at 120 minutes after dexamethasone, listed as (KKRRP15-19KRAAW) mACTH(1–24)): 51 ± 8 ng/mL | corticosterone induction as percent of that of wildtype ACTH ([2]; applied 30 minutes before the ACTH injection): 35% | corticosterone induction as percent of that of wildtype ACTH ([2]; applied at the same time as the ACTH injection): 10%
